From patent US11912787B2, “Peptide for skin aging prevention and wrinkle reduction, and composition comprising same” (DERMAFIRM, INC., priority 2019, dated 2024)
Where two headings read alike, the source gives them in different places. Residues, ends and D or L forms follow the SMILES beside them. *: point of attachment. Palmitoyl = CCCCCCCCCCCCCCCC(=O)*

Tested on: Fibroblasts
Test: MTT cytotoxicity assay
Format: cell-based
Experimental: In order to examine the cytotoxicity of the novel peptides (GHK-R4 (SEQ ID NO.: 3) and Pal-GHK-R4 (SEQ ID NO.: 4)) according to the Examples of the present invention, MTT assay was performed. As a control, GHK-acetate was used. Fibroblasts were treated with various concentrations of each of the control and the novel peptides, and after 24 hours, treated with MTT reagent. Next, the absorbance was measured, and the viability of the cells was calculated based on the absorbance.

Compound | IC30 (cell viability, MTT) | IC30 (cell viability, MTT) (fibroblasts, 24 hours treatment) [µM]
NCCCC[C@H](NC(=O)[C@H](Cc1cnc[nH]1)NC(=O)CN)C(=O)O [GHK-acetate, glycine-histidyl-lysine tripeptide, reference compound] (H-Gly-His-Lys-OH) | about 31.71 mM | –
CCCCCCCCCCCCCCCC(=O)NCC(=O)N[C@@H](Cc1c[nH]cn1)C(=O)N[C@@H](CCCCN)C(=O)N[C@@H](CCCNC(=N)N)C(=O)N[C@@H](CCCNC(=N)N)C(=O)N[C@@H](CCCNC(=N)N)C(=O)N[C@@H](CCCNC(=N)N)C(=O)O [Pal-GHK-R4, Pal-GlyHisLys-ArgArgArgArg-OH] (Palmitoyl-GHKRRRR-OH) | ~8.70 µM | –
H-GHKRRRR-OH [GHK-R4, H-GlyHisLys-ArgArgArgArg-OH] | – | ~5320
